Patent US6943016B1, “Human adult astrocytes, their preparation and uses thereof” (Aventis Pharma S.A., priority 1999, dated 2005)

System: human adult astrocytes
Assay: TH activity in transduced human adult astrocytes (enzymatic assay of Reinhard et al.)
Assay type: cell-based
Details: AdPGKtet hTH-1-infected astrocytes, doxycycline 10 ng/ml
Description: The medium was renewed every second day.
Three, 7 and 14 days after infection, cells were harvested and processed to measure TH activity and evaluate L-Dopa production. TH activity of cell pellets was assayed as previously described (Reinhard et al. 1986). The production of L-Dopa was assessed after growing human astrocytes for 24 h in DMEM/F12 without FCS. Conditioned media was collected, and 0.5 ml aliquots were mixed with an alumina suspension (40 mg/ml) in 0.05 M Tris-HCl, pH 8.6. Each mixture was then continuously stirred for 10 min, washed with the Tris-HCl buffer, and the alumina finally collected by centrifugation (800 g, 5 min. 4° C.). Catechols adsorbed onto the alumina gel were eluted with 0.6 N perchloric acid (0.1 ml per sample), and the eluate was neutralized with 2 M potassium phosphate pH 7.4 (20 μl per sample). After centrifugation (30 000 g, 15 min, 4° C.), 10 μl aliquots of the cleared supernatant were injected into a high performance liquid chromatography column (Ultrasphere IP, 25 cm, 0.46 cm outer diameter, 5 μm) for the electrochemical quantification of L-Dopa, as described in detail elsewhere (Adrien et al., 1989).

C[C@H]1c2cccc(O)c2C(=O)C2=C(O)[C@]3(O)C(=O)C(C(N)=O)=C(O)[C@@H](N(C)C)[C@@H]3[C@@H](O)[C@@H]21 [doxycycline] was tested, and the “decrease of TH activity in the presence of doxycycline” value (14 days post-infection) was “at least 10 fold” and the “TH activity in doxycycline-treated cells” value (day 14) was 3,590 pmol/mg prot/h.
